The supplement of paper PMC10307832

Assays:
Test in all cases: relative viability (nuclei count vs DMSO), 5 days (fraction); higher = more cells survive
Adavosertib + Trametinib = compound: C=CCn1c(=O)c2cnc(Nc3ccc(N4CCN(C)CC4)cc3)nc2n1-c1cccc(C(C)(C)O)n1 [Adavosertib] + CC(=O)Nc1cccc(-n2c(=O)n(C3CC3)c(=O)c3c(Nc4ccc(I)cc4F)n(C)c(=O)c(C)c32)c1 [Trametinib] (partner 0.02 µM)
Outline: (§1)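 Lung cancer cell lines, seeded in 1536-well plates, were treated the following day by pin tool with a single drug or with five library-drug doses (not always all listed) in √10 steps on top of a fixed anchor-drug dose. Cells were fixed and nuclei stained in one step after 5 days, and nuclei were counted. Relative viability is the nuclei count for treated wells divided by that for vehicle wells, reported as medians of duplicate plates.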

Nelarabine + Navitoclax = compound: COc1nc(N)nc2c1ncn2[C@@H]1O[C@H](CO)[C@@H](O)[C@@H]1O [Nelarabine] + CC1(C)CCC(c2ccc(Cl)cc2)=C(CN2CCN(c3ccc(C(=O)NS(=O)(=O)c4ccc(N[C@H](CCN5CCOCC5)CSc5ccccc5)c(S(=O)(=O)C(F)(F)F)c4)cc3)CC2)C1 [Navitoclax] (partner 0.5 µM)
Outline: as §1

Nelarabine = compound: COc1nc(N)nc2c1ncn2[C@@H]1O[C@H](CO)[C@@H](O)[C@@H]1O [Nelarabine]
Outline: (§2)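 Viability was read as treated-well nuclei divided by vehicle-well nuclei, using the median across plates. Lung cancer cell lines in 1536-well plates were kept overnight at 37 °C, pinned with five √10-spaced library-drug doses, and after 5 days were Hoechst-stained, imaged at 4× and counted in MetaXpress. Plates passed only with control CV below 25% and at least one doubling.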

Adavosertib = compound: C=CCn1c(=O)c2cnc(Nc3ccc(N4CCN(C)CC4)cc3)nc2n1-c1cccc(C(C)(C)O)n1 [Adavosertib]
Outline: as §2

Cell Line | relative viability (Adavosertib + Trametinib; first compound 0.01 µM) | relative viability (Adavosertib + Trametinib; first compound 0.03162 µM) | relative viability (Adavosertib + Trametinib; first compound 0.1 µM) | relative viability (Adavosertib + Trametinib; first compound 0.3162 µM) | relative viability (Nelarabine + Navitoclax; first compound 0.01 µM) | relative viability (Nelarabine + Navitoclax; first compound 0.03162 µM) | relative viability (Nelarabine + Navitoclax; first compound 0.1 µM) | relative viability (Nelarabine + Navitoclax; first compound 0.3162 µM) | relative viability (Nelarabine + Navitoclax; first compound 1 µM) | relative viability (Nelarabine; 0.01 µM) | relative viability (Nelarabine; 0.03162 µM) | relative viability (Nelarabine; 0.1 µM) | relative viability (Nelarabine; 0.3162 µM) | relative viability (Nelarabine; 1 µM) | relative viability (Adavosertib; 0.01 µM) | relative viability (Adavosertib; 0.03162 µM) | relative viability (Adavosertib; 0.1 µM) | relative viability (Adavosertib; 0.3162 µM)
LU99A | 0.624 | 0.61 | 0.634 | 0.464 | 0.918 | 0.821 | 0.845 | 0.765 | 0.758 | 0.965 | 0.952 | 0.956 | 0.946 | 1.07 | 1.03 | 0.977 | 0.894 | 0.924
201T | 0.657 | 0.707 | 0.736 | 0.718 | 1.15 | 1.18 | 1.18 | 1.15 | 1.16 | 1.03 | 0.907 | 1.04 | 1.02 | 0.999 | 0.973 | 1.02 | 0.981 | 1.04
NCI-H2023 | 0.575 | 0.521 | 0.62 | 0.267 | 1.26 | 1.17 | 1.03 | 1.07 | 1.01 | 1.48 | 1.05 | 0.97 | 1.02 | 0.851 | 0.892 | 0.87 | 0.752 | 0.451
LK-2 | 0.759 | 0.823 | 0.701 | 0.84 | 0.975 | – | 1.09 | 0.935 | 0.729 | 1.28 | – | 0.978 | 1.09 | 1.14 | 0.994 | 1.16 | 1.08 | 1.05
BEN | 1.02 | 1 | 1.27 | 1.18 | 0.0794 | 0.0676 | 0.187 | 0.0641 | 0.0472 | 1.05 | 1.05 | 1.02 | 1.19 | 1.03 | 0.886 | 1.04 | 1.06 | 1.09
EPLC-272H | 0.293 | 0.309 | 0.288 | 0.275 | 1.33 | 1.35 | 1.43 | 0.954 | 1.08 | 1.01 | 1 | 0.878 | 0.952 | 0.881 | 0.853 | 0.961 | 0.757 | 0.497
NCI-H1975 | 0.303 | 0.309 | 0.327 | 0.415 | 1.27 | 0.948 | 1.26 | 1.39 | 1.14 | 1.21 | 1.01 | 1.14 | 1.17 | 1.04 | 0.971 | 0.899 | 0.935 | 0.759
HCC-827 | 0.533 | 0.567 | 0.492 | 0.522 | 1.02 | 0.886 | 0.91 | 0.797 | 0.705 | 1.03 | 0.93 | 0.97 | 0.828 | 0.823 | 1.04 | 1.06 | 1.08 | 1.03
LCLC-97TM1 | 0.223 | 0.171 | 0.227 | 0.21 | 0.428 | 0.202 | 0.458 | 0.478 | 0.351 | 0.939 | – | 0.971 | 0.95 | 0.878 | 0.955 | 1.02 | 1.11 | 0.71
NCI-H2126 | 0.571 | 0.528 | 0.619 | 0.619 | 0.869 | 0.748 | 0.786 | 0.816 | 0.743 | 1.08 | 0.952 | 0.961 | 1.03 | 0.988 | 1.01 | 1.04 | 0.969 | 1.07
PC-14 | 0.704 | 0.808 | 0.862 | 0.683 | 1.09 | 1.11 | 1.05 | 1.05 | 1.03 | 1.19 | 0.99 | 1.21 | 1.07 | 1.03 | 1.01 | 1.01 | 1.01 | 0.605
NCI-H1355 | 0.442 | 0.373 | 0.445 | 0.457 | 1.1 | 0.818 | 0.923 | 1.01 | 0.991 | 1.18 | 0.875 | 1.03 | 1.04 | 1.02 | 0.991 | 0.99 | 0.948 | 0.986
NCI-H460 | 0.179 | 0.137 | 0.197 | 0.124 | – | 1.68 | 1.42 | 1.37 | 1.17 | 1.24 | 1.09 | 1.01 | 1.2 | 1 | 1.03 | 1.01 | 1.02 | 1.08
NCI-H1651 | 0.841 | 0.85 | 0.864 | 0.871 | 1.48 | 1.1 | 1.1 | 1.04 | 1.08 | 1.1 | 1.07 | 1.06 | 1.08 | 1.01 | 0.947 | 0.985 | 0.979 | 0.951
NCI-H1650 | 0.587 | 0.616 | 0.539 | 0.574 | 1.32 | 1.36 | 1.28 | 1.36 | 1.23 | 1.13 | 0.999 | 0.845 | 0.978 | 0.928 | 0.867 | 0.981 | 0.943 | 0.472
NCI-H1734 | 0.64 | 0.726 | 0.711 | 0.711 | 1.06 | 0.787 | 0.962 | 0.869 | 0.833 | 1.16 | 0.96 | 0.997 | 1.02 | 1.05 | 1.03 | 0.972 | 1 | 0.676
H3255 | 0.576 | 0.591 | 0.616 | 0.634 | 0.59 | 0.486 | 0.625 | 0.6 | 0.622 | 0.998 | 1.08 | 0.987 | 0.963 | 0.97 | 0.888 | 1.07 | 1.02 | 1.08
NCI-H596 | 0.81 | 0.79 | 0.678 | 0.796 | 0.986 | 1.13 | 0.959 | 1.04 | 0.994 | 1.05 | 1.01 | 1 | 0.992 | 1.06 | 1.05 | 1.1 | 0.956 | 0.931
